# Source: patent US7943181B2, “Natural immunostimulant compositions, methods for obtaining the same and pharmaceutical formulations thereof” (Himalaya Global Holdings Ltd., priority 2004, dated 2011)
# Read-outs that look alike come from different tables or passages of the source.
# What was measured:
# [1] = system: IL-6 production in RAW-264.7 Cells; assay: Estimation of IL-6 production by ELISA in macrophage supernatant; assay type: cell-based, mouse; details: Table 7; RAW 264.7 supernatant; control 542 ± 4
# Description: (§1) This experiment was carried out to know whether the plant extract has stimulatory effects on the production of proinflammatory cytokines. Mouse macrophage cells, RAW 264.7 were cultured for 48 hours in the presence or in the absence of filtered plant extract. LPS was used as stimulant for proinflammatory cytokines TNF-∝ and IL-6. Supernatant of these samples were harvested immediately for estimations of TNF-∝ and IL-6 by an ELISA as per the manufacturer's protocol and recorded the results as concentrations in pg/ml.
# [2] = system: TNF-α production in RAW-264.7 Cells; assay: Estimation of TNF-α production by ELISA in macrophage supernatant; assay type: cell-based, mouse; details: Table 6; RAW 264.7 supernatant; control 1662.00 ± 3.50
# Description: as §1
# [3] = system: ACD sensitized L929 cells; assay: Assay for immunostimulatory effects: proinflammatory cytokine induced cell death after transfer of RAW 264.7 supernatant; assay type: cell-based, mouse; details: Table 4, extract 200 μg/ml, LPS 1 μg/ml, control 0
# Description: The extracts […] to […] and SR-1 to SR-11 were subjected to biological screening in Mouse macrophage (RAW 264.7) cell and fibroblast (L929) cells for in vitro immunomodulatory activity. Following the treatment with sub toxic levels of the extract the percent death in the ACD sensitised cells was taken as end point.
# The stock solution of the plant extract was prepared in specified solvent at a concentration of 50 mg/ml. The working concentration of 10 mg/ml solution was prepared in incomplete Dulbecco's Modified Eagle's Medium (DMEM) and filter sterilized for further use in the assays.
# Mouse macrophage (RAW 264.7) cells and fibroblast (L929) cells were used in the in vitro assays. These were maintained in DMEM supplemented with 10% fetal calf serum (FCS) at 37° C. in a humidified atmosphere containing 5% CO2/95% air. The cells were sub cultured upon confluence.
# Mouse macrophage (RAW 264.7) cells were plated at a cell density of 1×10^5 cells/well in a 96 well micro titer plate. After 24 h of incubation they were treated with filtered extract (200 μg/ml), Lipopolysaccharide (1 μg/ml) or media alone and incubated for a further period of 18-24 h. The supernatants as such or diluted ( 1/10th or 1/20th) were transferred to pre-incubated (24 h) L929 cells ([…]). […]
# RAW-264.7 Cells = assay: Nitric oxide (NO) estimation, nitrite released from mouse macrophage cells; assay type: cell-based; details: Table 5, 48 h, LPS 1 μg/ml, control 800 ± 50
# Description: Macrophages are part of immune system (innate immunity) which phagocytose the intruder organism and kill them by release of toxic Nitric Oxide (NO). In this experiment, the ability of the plant extract to stimulate the macrophages for NO production was measured as nitrite released from mouse macrophage cells. Mouse macrophage cells were plated in 96-well culture plates (1×10^5 cells/well) and incubated for 24 h at 37° C. in a humidified atmosphere containing 5% CO2/95% air. The spent media from each well was aspirated and replenished with fresh media and further incubated for 48 h with desired concentration of extract in presence or in absence of Lipopolysaccharide (LPS 1 μg/ml). NO production in the supernatant was measured by micro plate assay. Cell supernatant was mixed with an equal volume of the Griess reagent (1% sulfanilaminde and 0.1% N-[napthyl]ethylenediamine dihydrochloride in 2.5% H3PO4) at room temperature for 10 min. The absorbance at 540 nm was determined in a microtiter plate reader (Anthos HT II). NO estimation was carried out using standard curve plotted against known quantity of […]. Results presented are in μM concentration obtained from mean OD of triplicate wells of each group.
# [4] = target: snake venom Phosphodiesterase type I (Crotalus adamanteus, UniProt J3SEZ3); details: cited from earlier work
# [5] = Indian J. Chem, 1989; cited from earlier work
# [6] = J. Chem. Soc., Pakistan, 1982; cited from earlier work
# [7] = system: SRBC specific immunoglobulin; assay: Humoral response: haemagglutination antibody titre against SRBC in normal and immunocompromised rats; assay type: in vivo; details: Wistar rats, IMS-6 200 mg/Kg orally 14 days, SRBC ip day 10, Cyclophosphamide 400 mg/Kg ip day 12, serum day 14; control 3.278 ± 0.181
# Sequence of snake venom Phosphodiesterase type I (J3SEZ3 24-851 limits assumed): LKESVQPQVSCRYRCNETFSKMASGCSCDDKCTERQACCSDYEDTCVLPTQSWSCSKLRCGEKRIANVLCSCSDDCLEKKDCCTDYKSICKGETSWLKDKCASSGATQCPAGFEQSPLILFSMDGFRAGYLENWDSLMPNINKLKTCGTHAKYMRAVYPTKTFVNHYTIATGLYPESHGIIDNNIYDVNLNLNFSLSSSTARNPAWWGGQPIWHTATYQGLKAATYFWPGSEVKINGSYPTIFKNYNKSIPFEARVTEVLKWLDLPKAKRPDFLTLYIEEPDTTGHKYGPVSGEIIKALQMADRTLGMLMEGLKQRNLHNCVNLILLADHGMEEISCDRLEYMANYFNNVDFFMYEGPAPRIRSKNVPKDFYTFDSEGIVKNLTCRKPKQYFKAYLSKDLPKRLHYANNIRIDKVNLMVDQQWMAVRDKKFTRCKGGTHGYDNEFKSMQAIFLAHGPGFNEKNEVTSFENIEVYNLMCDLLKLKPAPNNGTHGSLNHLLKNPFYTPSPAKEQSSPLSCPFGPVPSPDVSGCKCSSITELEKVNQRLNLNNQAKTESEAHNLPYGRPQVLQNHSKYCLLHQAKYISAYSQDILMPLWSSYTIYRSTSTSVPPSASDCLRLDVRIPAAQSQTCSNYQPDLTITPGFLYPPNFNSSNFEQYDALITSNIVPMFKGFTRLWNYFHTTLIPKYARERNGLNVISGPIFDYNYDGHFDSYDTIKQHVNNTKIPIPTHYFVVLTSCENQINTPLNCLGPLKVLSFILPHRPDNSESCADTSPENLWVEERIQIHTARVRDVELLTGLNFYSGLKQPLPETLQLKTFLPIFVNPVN
compound,measurement,setting,value
Lipopolysaccharide [LPS],IL-6 Conc.,[1],11187 ± 214 pg/mL
same,TNF ∝ Levels,[2],3432.00 ± 140.50 pg/mL
same,TNF ∝ Levels (pg/ml),[2],3432.00 ± 140.50^• pg/ml
same,Proinflammatory Cytokine induced Cell Death (%),[3],79.0%
same,NO Levels,RAW-264.7 Cells,2862.50 ± 87.50 µM
O=C(OCc1cc(O)ccc1O[C@@H]1O[C@H](CO)[C@@H](O)[C@H](O)[C@H]1O)c1ccccc1 [salireposide],inhibitory activity against snake venom Phosphodiesterase type I,"[4]; Ahmad et al. Phytochemistry, 2003",inhibitory activity
OC[C@H]1O[C@@H](Oc2cc(O)c3c(c2)O[C@H](c2ccc(O)cc2)[C@H](O)C3)[C@H](O)[C@@H](O)[C@@H]1O [Symposide],antifibrinolytic activity,[5],showed antifibrinolytic activity
benzoylsalireposide,inhibitory activity against snake venom Phosphodiesterase type I,[4],inhibitory activity
C[C@H]1N[C@@H](CCCCCCCCCCC2=C[C@@H](CCCCCCCCCC[C@H]3CC[C@@H](O)[C@@H](C)N3)[C@@H]3CCCN3C2)CC[C@H]1O [Juliprosopine],antibacterial activity,[6],exhibiting antibacterial activity
O=P1(N(CCCl)CCCl)NCCCO1 (stereo not shown) [Cyclophosphamide],Antibody titre,[7],0.444 ± 0.141
